Data set [1] has as its system human prostate tumor xenografts (22Rv1 cells). In words: Tissue biodistribution and tumor-to-tissue fluorescence ratio of DUPA-NIR conjugates, IVIS imaging. The format is in vivo, mice. Conditions: 2 h after tail vein injection. The protocol: In vivo studies. More specifically, biodistribution of DUPA-NIR conjugates 1-9 was monitored using fluorescence imaging of mice bearing human prostate tumor xenografts (22Rv1 cells). Male nude mice with 22Rv1 tumor xenografts were injected with DUPA-NIR dye conjugates via tail vein. The mice were euthanized 2 h after administration of the DUPA-NIR dye conjugate, selected tissues were harvested, and tissues were imaged with IVIS imager (ex=745 nm, em=ICG, exposure time=1 s).
The conjugates were also tested to show the ratio of tumor-to-tissue fluorescence. […] After imaging, fluorescence within a Region of interest (ROI) was measured for each tissue using In Vivo imaging software and tumor-to-tissue fluorescence was then calculated
in vivo studies. […] Male nude mice with 22Rv1 tumor xenografts were injected with DUPA-NIR dye conjugates via tail vein. The mice were euthanized 2 h after administration of the DUPA-NIR dye conjugate, selected tissues were harvested, and tissues were imaged with IVIS imager (ex=745 nm, em=ICG, exposure time=1 s). After imaging, fluorescence within a Region of interest (ROI) was measured for each tissue using In Vivo imaging software and tumor-to-tissue fluorescence was then calculated.
Male nude mice with 22Rv1 tumor xenografts were injected with DUPA-NIR dye conjugates via tail vein. The mice were euthanized 2 h after administration of the DUPA-NIR dye conjugate, selected tissues were harvested, and tissues were imaged with IVIS imager (ex=745 nm, em=ICG, exposure time=1 s). After imaging, fluorescence within a Region of interest (ROI) was measured for each tissue using In Vivo imaging software and tumor-to-tissue fluorescence was then calculated.
In vivo studies. […] Male nude mice with 22Rv1 tumor xenografts were injected with DUPA-NIR dye conjugates via tail vein. The mice were euthanized 2 h after administration of the DUPA-NIR dye conjugate, selected tissues were harvested, and tissues were imaged with IVIS imager (ex=745 nm, em=ICG, exposure time=1 s). After imaging, fluorescence within a Region of interest (ROI) was measured for each tissue using In Vivo imaging software and tumor-to-tissue fluorescence was then calculated.

The target in another data set is T1, PSMA (Homo sapiens, UniProt Q04609).
T1 construct: host or cells: 22Rv1 human prostate cancer cells
T1 sequence (Q04609 whole entry): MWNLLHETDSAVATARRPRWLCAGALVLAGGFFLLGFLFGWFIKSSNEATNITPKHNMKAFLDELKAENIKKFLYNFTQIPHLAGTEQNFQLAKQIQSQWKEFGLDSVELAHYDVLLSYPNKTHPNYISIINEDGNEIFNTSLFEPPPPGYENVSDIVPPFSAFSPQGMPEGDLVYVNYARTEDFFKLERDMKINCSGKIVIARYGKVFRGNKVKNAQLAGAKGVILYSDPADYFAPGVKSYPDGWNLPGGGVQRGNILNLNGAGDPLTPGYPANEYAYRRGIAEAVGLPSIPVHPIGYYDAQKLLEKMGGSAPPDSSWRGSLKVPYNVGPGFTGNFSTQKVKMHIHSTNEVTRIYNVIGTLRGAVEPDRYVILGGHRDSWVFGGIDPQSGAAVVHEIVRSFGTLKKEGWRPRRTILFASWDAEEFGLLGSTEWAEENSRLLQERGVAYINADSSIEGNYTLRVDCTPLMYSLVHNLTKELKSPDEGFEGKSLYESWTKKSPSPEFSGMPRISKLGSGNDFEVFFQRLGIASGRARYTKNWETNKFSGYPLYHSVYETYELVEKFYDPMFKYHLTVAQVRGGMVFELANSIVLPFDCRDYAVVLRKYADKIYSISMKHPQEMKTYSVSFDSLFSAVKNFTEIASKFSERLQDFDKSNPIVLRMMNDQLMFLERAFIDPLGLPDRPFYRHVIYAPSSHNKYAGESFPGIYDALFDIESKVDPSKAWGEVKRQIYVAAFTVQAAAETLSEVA
The experiment in a line: Relative binding affinity of DUPA-NIR conjugates with respect to DUPA-FITC on 22Rv1 cells, flow cytometry. Conditions: for Kd: conjugates with variable length spacers, 1 h at 37° C., 100 nM DUPA-FITC; for affinity for PSMA (in words): in vitro binding affinity data. The protocol: FIG. 3—Relative binding affinities of DUPA-NIR conjugates 1-9 with respect to DUPA-FITC (14). PSMA-positive 22Rv1 human prostate cancer cells were incubated for 1 h at 37° C. in the presence of 100 nM DUPA-FITC with increasing concentrations of DUPA-NIR conjugates. […] Cell bound fluorescence was assayed as using flow cytometry.
FIG. 6—Relative binding affinities of DUPA-NIR conjugates with aromatic amino acids linkers with respect to DUPA-FITC (14). PSMA-positive 22Rv1 human prostate cancer cells were incubated for 1 h at 37° C. in the presence of 100 nM DUPA-FITC with increasing concentrations of DUPA-NIR conjugates. […] Cell bound fluorescence was assayed as using flow cytometry.
FIG. 3 Relative binding affinities of DUPA-NIR conjugates 1-9 with respect to DUPA-FITC (14). PSMA-positive 22Rv1 human prostate cancer cells were incubated for 1 h at 37° C. in the presence of 100 nM DUPA-FITC with increasing concentrations of DUPA-NIR conjugates. […] Cell bound fluorescence was assayed as using flow cytometry.
in vitro studies. […] PSMA-positive 22Rv1 human prostate cancer cells were incubated for 1 h at 37° C. in the presence of 100 nM DUPA-FITC with increasing concentrations of DUPA-NIR conjugates. […] Cell bound fluorescence was assayed as using flow cytometry.
PSMA-positive 22Rv1 human prostate cancer cells were incubated for 1 h at 37° C. in the presence of 100 nM DUPA-FITC with increasing concentrations of DUPA-NIR conjugates. […] Cell bound fluorescence was assayed as using flow cytometry.
FIG. 24: Relative binding affinities of DUPA-NIR conjugates with respect to DUPA-FITC (14). PSMA-positive 22Rv1 human prostate cancer cells were incubated for 1 h at 37° C. in the presence of 100 nM DUPA-FITC with increasing concentrations of DUPA-NIR conjugates. […] Cell bound fluorescence was assayed as using flow cytometry.
PSMA-positive 22Rv1 human prostate cancer cells were incubated for 1 h at 37° C. in the presence of 100 nM DUPA-FITC with increasing concentrations of DUPA-NIR conjugates. […] Cell bound fluorescence was assayed as using flow cytometry
Cancer cells were incubated for 1 h at 37° C. in the presence of 100 nM DUPA-FITC with increasing concentrations of compound 15. […] Cell bound fluorescence was assayed as using flow cytometry.
A general note: In flow cytometry, cells or beads pass a laser one at a time.

Data set [2] concerns 22Rv1 human prostate tumor xenograft. The experiment in a line: Time dependent whole-body fluorescence imaging of DUPA-NIR conjugates, IVIS imager. In kind it is in vivo, mouse. Conditions: 6 or 20 nmol, imaged at different time intervals. As to the method:
22Rv1 human prostate tumor xenograft bearing mouse was injected with 20 nmol of 15 and imaged with IVIS imager (ex=745 nm, em=ICG, exposure time=1 s) at different time intervals.
22Rv1 human prostate tumor xenograft bearing mouse was injected with 20 nmol of 23 and imaged with IVIS imager (ex=745 nm, em=ICG, exposure time=1 s) at different time intervals.
22Rv1 human prostate tumor xenograft bearing mouse was injected with 20 nmol of 25 and imaged with IVIS imager (ex=745 nm, em=ICG, exposure time=1 s) at different time intervals
22Rv1 human prostate tumor xenograft bearing mouse was injected with 6 nmol of 35 and imaged with IVIS imager (ex=745 nm, em=ICG, exposure time=1 s) at different time intervals.
22Rv1 human prostate tumor xenograft bearing mouse was injected with 6 nmol of 36 and imaged with IVIS imager (ex=745 nm, em=ICG, exposure time=1 s) at different time intervals.
22Rv1 human prostate tumor xenograft bearing mouse was injected with 20 nmol of 39 and imaged with IVIS imager (ex=745 nm, em=ICG, exposure time=1 s) at different time intervals.
22Rv1 human prostate tumor xenograft bearing mouse was injected with 20 nmol of 40 and imaged with IVIS imager (ex=745 nm, em=ICG, exposure time=1 s) at different time intervals.
22Rv1 human prostate tumor xenograft bearing mouse was injected with 20 nmol of 41 and imaged with IVIS imager (ex=745 nm, em=ICG, exposure time=1 s) at different time intervals.
FIG. 25: Overlay of whole body or half body fluorescence image over white light images after adjusting the threshold. 22Rv1 human prostate tumor xenograft bearing mouse was injected with 20 nmol of 54 and imaged with IVIS imager (ex=745 nm, em=ICG, exposure time=1 s) at different time intervals.
22Rv1 human prostate tumor xenograft bearing mouse was injected with 20 nmol of 55 and imaged with IVIS imager (ex=745 nm, em=ICG, exposure time=1 s) at different time intervals.
22Rv1 human prostate tumor xenograft bearing mouse was injected with 20 nmol of 56 and imaged with IVIS imager (ex=745 nm, em=ICG, exposure time=1 s) at different time intervals.
22Rv1 human prostate tumor xenograft bearing mouse was injected with 20 nmol of 57 and imaged with IVIS imager (ex=745 nm, em=ICG, exposure time=1 s) at different time intervals
22Rv1 human prostate tumor xenograft bearing mouse was injected with 20 nmol of 58 and imaged with IVIS imager (ex=745 nm, em=ICG, exposure time=1 s) at different time intervals
22Rv1 human prostate tumor xenograft bearing mouse was injected with 20 nmol of 60 and imaged with IVIS imager (ex=745 nm, em=ICG, exposure time=1 s) at different time intervals.
in vivo studies. […] 22Rv1 human prostate tumor xenograft bearing mouse was injected with 20 nmol of 63 and imaged with IVIS imager (ex=745 nm, em=ICG, exposure time=1 s) at different time intervals.
22Rv1 human prostate tumor xenograft bearing mouse was injected with 6 nmol of 63 and imaged with IVIS imager (ex=745 nm, em=ICG, exposure time=1 s) at different time intervals.
22Rv1 human prostate tumor xenograft bearing mouse was injected with 20 nmol of 64 and imaged with IVIS imager (ex=745 nm, em=ICG, exposure time=1 s) at different time intervals.
22Rv1 human prostate tumor xenograft bearing mouse was injected with 6 nmol of 15 and imaged with IVIS imager (ex=745 nm, em=ICG, exposure time=1 s) at different time intervals.

The test system of the next data set is basophils. The experiment in a line: Basophil activation test (Flow CAST) in human blood samples. In kind it is cell-based. The protocol: Tolerability Studies: The blood samples were collected into hirudin tubes and used within an hour of collection. For each donor, 4 different tubes were prepared for allergen, positive controls, and negative control. Samples were analyzed using Flow CAST® high sensitivity Basophil Activation Test (BAT). Briefly, stimulation buffer (100 μL, background) or anti-FcεER antibody (100 μL) or fMLP (100 μL) or OTL78 (75 μM in 100 μL of saline) was added to tubes containing stimulation buffer (200 μL). 100 μL of blood was added to each tube and mixed gently. After adding staining reagent (40 μL) containing anti-CD63-CD203c-PE-DY647 and anti-CCR3-PE, each tube was mixed gently and incubated for 15 minutes at 37° C. Lysing reagent (2 mL) was added to each tube, mixed gently, incubated for 5-10 minutes at room temperature, and centrifuged for 5 minutes at 500×g. The supernatant was discarded and the cells were re-suspended in wash buffer (900 μL) and analyzed using flow cytometry. CD63-CD203c-PE-DY647+/CCR3-PE+ cell population considered as the activated basophils.

The source of these data is patent US11484607B2, “PSMA-targeted NIR dyes and their uses” (On Target Laboratories, LLC, priority 2015, dated 2022).

As usually defined, the Kd is a measure of binding affinity in units of concentration.

With `CC1(C)C(/C=C/C2=C(Oc3ccc(C[C@H](NC(=O)CCCCCCCNC(=O)CC[C@H](NC(=O)N[C@@H](CCC(=O)O)C(=O)O)C(=O)O)C(=O)O)cc3)C(=C/C=C3/N(CCCCS(=O)(=O)O)c4ccc(S(=O)(=O)O)cc4C3(C)C)/CCC2)=[N+](CCCCS(=O)(=O)[O-])c2ccc(S(=O)(=O)O)cc21` [Compound 4, DUPA-EAOA-Tyr-S0456], in data set [1], the “fluorescence intensity in the tumor / tumor accumulation” value is “higher fluorescence intensity” and the “tumor-to-background ratio (TBR), in words” value (shortened to “tumor-to-background ratio”) was “best”. Besides, on PSMA, the Kd came to 15.2 nM and the “affinity for PSMA (in words)” value is “very high affinity”.

As for `CC1(C)C(/C=C/C2=C(Oc3ccc(C[C@H](NC(=O)CCCCCCCNC(=O)[C@H](Cc4ccccc4)NC(=O)[C@H](Cc4ccccc4)NC(=O)CC[C@H](NC(=O)N[C@@H](CCC(=O)O)C(=O)O)C(=O)O)C(=O)O)cc3)C(=C/C=C3/N(CCCCS(=O)(=O)O)c4ccc(S(=O)(=O)O)cc4C3(C)C)/CCC2)=[N+](CCCCS(=O)(=O)[O-])c2ccc(S(=O)(=O)O)cc21` [Compound 6], in data set [1], the “fluorescence intensity in the tumor / tumor accumulation” value is given as “lower” and the “tumor-to-background ratio” value is listed as “second”. On PSMA, this molecule displayed an equilibrium dissociation constant (Kd) of 35.7 nM.

On to `CC1(C)C(/C=C/C2=C(Oc3ccc(C[C@H](NC(=O)CCCCCCCNC(=O)[C@H](Cc4ccccc4)NC(=O)[C@H](Cc4ccccc4)NC(=O)C[C@H](NC(=O)CC[C@H](NC(=O)N[C@@H](CCC(=O)O)C(=O)O)C(=O)O)C(=O)O)C(=O)O)cc3)C(=C/C=C3/N(CCCCS(=O)(=O)O)c4ccc(S(=O)(=O)O)cc4C3(C)C)/CCC2)=[N+](CCCCS(=O)(=O)[O-])c2ccc(S(=O)(=O)O)cc21` [Compound 7], for which, in data set [1], the “fluorescence intensity in the tumor / tumor accumulation” value is “lower” and the “tumor-to-background ratio” value is “third best”. The same molecule had an equilibrium dissociation constant (Kd) at PSMA of 26.8 nM.

Regarding `CC1(C)C(/C=C/C2=C(Oc3ccc(C[C@H](NC(=O)[C@H](CCCNC(=N)N)NC(=O)[C@H](CCCNC(=N)N)NC(=O)CCCCCCCNC(=O)CC[C@H](NC(=O)N[C@@H](CCC(=O)O)C(=O)O)C(=O)O)C(=O)O)cc3)C(=C/C=C3/N(CCCCS(=O)(=O)O)c4ccc(S(=O)(=O)O)cc4C3(C)C)/CCC2)=[N+](CCCCS(=O)(=O)[O-])c2ccc(S(=O)(=O)O)cc21` [Compound 39], in data set [2], the whole-body imaging result is on record as “very good whole-body imaging”.

Take `CC1(C)C(=CC=C2CCCC(C=CC3=[N+](CCCCS(=O)(=O)[O-])c4ccc(S(=O)(=O)O)cc4C3(C)C)=C2Oc2ccc(CC(NC(=O)CC(NC(=O)C(Cc3ccccc3)NC(=O)C(Cc3ccccc3)NC(=O)CCCCCCCNC(=O)CCC(NC(=O)NC(CCC(=O)O)C(=O)O)C(=O)O)C(=O)O)C(=O)O)cc2)N(CCCCS(=O)(=O)O)c2ccc(S(=O)(=O)O)cc21` (stereo not drawn) [Compound 49]: in data set [1], the “fluorescence intensity in the tumor / tumor accumulation” value is reported as “very high tumor accumulation (high fluorescence intensity)” and the “tumor-to-background ratio” value is on record as “good”. Further, on PSMA, the “affinity for PSMA (in words)” value is given as “low binding affinity”.

Regarding `CSCC[C@H](NC=O)C(=O)N[C@@H](CC(C)C)C(=O)N[C@@H](Cc1ccccc1)C(=O)O` [fMLP, N-formylmethionyl-leucyl-phenylalanine], the “positive response (% activated basophils)” value in the data set on basophils (FIG. 47E) amounted to 73.5%. Moreover, in the data set on basophils (FIG. 47E, ≥2 considered positive response), the “stimulated index” value was 29.5. The “Percent of basophile activation, Avg” value in the data set with basophils (average of 3 healthy subjects) stood at 60%. For the same molecule, in the data set on basophils (healthy subjects, OTL78 75 μM), the “Percent of basophile activation, Subject 1” value came out at 73.5%; the “Percent of basophile activation, Subject 2” value was found to be 55.9%; the “Percent of basophile activation, Subject 3” value turned out to be 50.6%. The “SI = Avg/background” value in the data set with basophils (stimulation index, ≥2 considered positive response) is 23.1.
